In patent publication US6617340B1, “N-(substituted glycyl)-pyrrolidines, pharmaceutical compositions containing them and their use in inhibiting dipeptidyl peptidase-IV” (Novartis AG, priority 1999, dated 2003):

Experiments:
[1] = biological target: T1, DPP-IV activity in human plasma (Homo sapiens, UniProt P27487); test: human plasma DPP-IV assay; assay type: biochemical; conditions: substrate H-Glycine-Proline-AMC
T1 construct: from tissue; host or cells: human plasma
Protocol: (§1) Briefly, five μl of plasma are added to 96-well flat-bottom mictotiter plates (Falcon), followed by the addition of 5 μl of 80 mM MgCl2 in incubation buffer (25 mM HEPES, 140 mM NaCl, 1% RIA-grade BSA, pH 7.8). After a 5 min. incubation at room temperature, the reaction is initiated by the addition of 10 μl of incubation buffer containing 0.1 mM substrate (H-Glycine-Proline-AMC; AMC is 7-amino-4-methylcoumarin). The plates are covered with aluminum foil (or kept in the dark) and incubated at room temperature for 20 min. […] A fluorescence-concentration curve of free AMC is generated using 0-50 μM solutions of AMC in assay buffer. The curve generated is linear and is used for interpolation of substrate consumption (catalytic activity in nmoles substrate cleaved/min). As with the previous assay, the potency of the test compounds as DPP-IV inhibitors, expressed as IC50, is calculated from 8-point, dose-response curves using a 4 parameter logistic function.

[2] = biological target: T2, DPP-IV activity from human colonic carcinoma cell extracts (Caco-2) (Homo sapiens, UniProt P27487); test: Caco-2 DPP-IV Assay; assay type: biochemical; conditions: Caco-2 cell extract, substrate H-Alanine-Proline-pNA
T2 construct: Cell extract is prepared from cells solubilized in 10 mM Tris-HCl, 0.15 M NaCl, 0.04 t.i.u. aprotinin, 0.5% nonidet-P40; host or cells: Caco-2 (differentiated), NP-40 solubilized extract
T2 sequence (P27487 whole entry): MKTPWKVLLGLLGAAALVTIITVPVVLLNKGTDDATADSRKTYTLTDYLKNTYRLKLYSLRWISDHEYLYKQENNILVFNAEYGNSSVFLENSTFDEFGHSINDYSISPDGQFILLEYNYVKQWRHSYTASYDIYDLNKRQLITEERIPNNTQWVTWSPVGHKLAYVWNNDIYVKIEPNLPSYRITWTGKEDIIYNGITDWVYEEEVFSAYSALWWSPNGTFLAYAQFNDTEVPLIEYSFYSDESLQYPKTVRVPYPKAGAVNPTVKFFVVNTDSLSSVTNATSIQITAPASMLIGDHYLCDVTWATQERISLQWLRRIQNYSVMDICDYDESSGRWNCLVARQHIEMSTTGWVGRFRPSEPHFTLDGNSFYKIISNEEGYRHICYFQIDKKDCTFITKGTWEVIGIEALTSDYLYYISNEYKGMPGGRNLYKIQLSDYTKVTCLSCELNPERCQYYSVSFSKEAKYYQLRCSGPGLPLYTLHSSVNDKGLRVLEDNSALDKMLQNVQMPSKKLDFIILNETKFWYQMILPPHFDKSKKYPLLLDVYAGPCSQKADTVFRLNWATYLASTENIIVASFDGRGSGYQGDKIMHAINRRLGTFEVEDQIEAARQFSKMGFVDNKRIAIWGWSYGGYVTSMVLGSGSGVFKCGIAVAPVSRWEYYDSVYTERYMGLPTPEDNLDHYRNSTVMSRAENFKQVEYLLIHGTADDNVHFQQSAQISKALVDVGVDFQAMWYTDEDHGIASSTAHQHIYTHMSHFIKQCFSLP
Protocol: The human colonic carcinoma cell line Caco-2 was obtained from the American Type Culture Collection (ATCC HTB 37). Differentiation of the cells to induce DPP-IV expression was accomplished as described by Reisher, et al. in an article entitled “Increased expression of . . . intestinal cell line Caco-2” in Proc. Natl. Acad. Sci., Vol. 90, pgs. […] Cell extract is prepared from cells solubilized in 10 mM Tris-HCl, 0.15 M NaCl, 0.04 t.i.u. aprotinin, 0.5% nonidet-P40, pH 8.0, which is centrifuged at 35,000 g for 30 min. at 4° C. to remove cell debris. The assay is conducted by adding 20 μg solubilized Caco-2 protein, diluted to a final volume of 125 μl in assay buffer (25 mM Tris-HCl pH 7.4, 140 mM NaCl, 10 mM KCl, 1% bovine serum albumin) to microtiter plate wells. The reaction is initiated by adding 25 μl of 1 mM substrate (H-Alanine-Proline-pNA; pNA is p-nitroaniline). The reaction is run at room temperature for 10 minutes after which time a 19 μl volume of 25% glacial acetic acid is added to stop the reaction. […] A standard curve of free p-nitroaniline is generated using 0-500 μM solutions of free pNA in assay buffer. The curve generated is linear and is used for interpolation of substrate consumption (catalytic activity in nmoles substrate cleaved/min). […] The potency of the test compounds as DPP-IV inhibitors, expressed as IC50, is calculated from 8-point, dose-response curves using a 4-parameter logistic function.

[3] = biological target: T3, DPP-IV activity in rat plasma (Rattus norvegicus, UniProt P14740); test: rat plasma DPP-IV assay; assay type: biochemical; conditions: substrate H-Glycine-Proline-AMC
T3 construct: from tissue; host or cells: rat plasma
T3 sequence (P14740 37-767 limits assumed): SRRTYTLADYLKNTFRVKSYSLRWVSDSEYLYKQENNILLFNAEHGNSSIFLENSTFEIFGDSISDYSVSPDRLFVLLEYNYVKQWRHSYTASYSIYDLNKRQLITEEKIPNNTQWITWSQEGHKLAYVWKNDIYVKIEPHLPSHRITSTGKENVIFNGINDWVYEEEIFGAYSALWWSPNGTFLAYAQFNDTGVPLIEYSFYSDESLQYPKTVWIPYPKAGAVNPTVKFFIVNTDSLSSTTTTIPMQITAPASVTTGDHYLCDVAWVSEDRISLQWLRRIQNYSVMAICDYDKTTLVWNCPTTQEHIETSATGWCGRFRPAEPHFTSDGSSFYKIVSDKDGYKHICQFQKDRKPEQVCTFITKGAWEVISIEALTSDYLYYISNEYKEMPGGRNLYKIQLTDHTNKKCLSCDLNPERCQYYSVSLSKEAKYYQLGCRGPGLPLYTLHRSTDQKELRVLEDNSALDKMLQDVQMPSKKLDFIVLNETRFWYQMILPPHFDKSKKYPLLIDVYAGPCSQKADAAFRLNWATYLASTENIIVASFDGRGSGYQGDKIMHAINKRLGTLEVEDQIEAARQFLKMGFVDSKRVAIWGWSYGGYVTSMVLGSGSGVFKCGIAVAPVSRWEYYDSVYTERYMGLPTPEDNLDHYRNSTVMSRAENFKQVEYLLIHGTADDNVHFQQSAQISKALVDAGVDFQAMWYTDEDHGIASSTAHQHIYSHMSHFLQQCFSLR
Protocol: as §1

T1 sequence (P27487 39-766 limits assumed): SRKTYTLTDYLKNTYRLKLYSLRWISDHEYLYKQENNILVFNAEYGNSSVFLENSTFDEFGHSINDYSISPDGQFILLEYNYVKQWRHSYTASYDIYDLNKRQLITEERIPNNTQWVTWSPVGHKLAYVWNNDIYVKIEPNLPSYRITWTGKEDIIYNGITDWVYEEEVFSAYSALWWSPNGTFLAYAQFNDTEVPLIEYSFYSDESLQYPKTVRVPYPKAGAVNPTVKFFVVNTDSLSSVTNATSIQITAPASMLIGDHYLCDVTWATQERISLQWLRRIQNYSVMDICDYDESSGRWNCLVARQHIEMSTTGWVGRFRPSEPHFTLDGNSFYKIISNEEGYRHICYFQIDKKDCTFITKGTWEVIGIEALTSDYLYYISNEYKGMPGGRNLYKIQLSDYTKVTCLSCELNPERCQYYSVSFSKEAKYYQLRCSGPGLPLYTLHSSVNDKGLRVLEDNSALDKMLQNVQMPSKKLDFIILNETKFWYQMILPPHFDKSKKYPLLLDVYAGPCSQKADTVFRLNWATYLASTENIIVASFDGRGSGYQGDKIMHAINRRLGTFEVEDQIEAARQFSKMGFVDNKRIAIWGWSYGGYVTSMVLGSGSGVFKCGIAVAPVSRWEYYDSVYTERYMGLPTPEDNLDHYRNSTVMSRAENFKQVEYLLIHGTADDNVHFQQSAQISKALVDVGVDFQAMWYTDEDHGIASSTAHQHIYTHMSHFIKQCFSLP

| SMILES | IC50 [1] [µM] | IC50 [2] [µM] | melting point [°C] | IC50 [3] [µM] |
| --- | --- | --- | --- | --- |
| O=C(CNCCNc1ccccn1)N1CCCC1 [Ex. 2D, 1-[2-[(pyridin-2-yl)amino]ethylamino]acetylpyrrolidine] | 9.4 | 6.4 | 98 to 100 | 22.9 |
| O=C(CNCCNc1ncccn1)N1CCCC1 [Ex. 2B] | 45.8 | 27.5 | – | 28.4 |
| O=C(CNC1(CO)CCCC1)N1CCCC1 [Ex. 2C, 1-[(1-hydroxymethylcyclopent-1-yl)amino]acetylpyrrolidine] | 15.2 | 9.7 | 72 to 74 | 7.8 |

More lines, in order of falling IC50 [1], values ahead:

| IC50 [1] [µM] | IC50 [2] [µM] | melting point [°C] | IC50 [3] [µM] | SMILES |
| --- | --- | --- | --- | --- |
| 15.9 | 5.5 | – | 9.3 | O=C(CNCCNc1ccc(Cl)cn1)N1CCCC1 [Ex. 1, 1-[2-[(5-chloropyridin-2-yl)amino]ethylamino]acetylpyrrolidine] |
| 9.2 | 2.6 | 122 to 123 | 4.4 | N#Cc1ccc(NCCNCC(=O)N2CCCC2)nc1 [Ex. 2A, 1-[2-[(5-cyanopyridin-2-yl)amino]ethylamino]acetylpyrrolidine] |
